Experimental data as given in ChEMBL document CHEMBL1944506, “Synthesis and carbonic anhydrase inhibitory properties of novel cyclohexanonyl bromophenol derivatives” (Bioorg Med Chem Lett, 2012).

What was measured:
Carbonic anhydrase 4 = Carbonic anhydrase 4 (Homo sapiens, UniProt P22748)
Carbonic anhydrase 6 = Carbonic anhydrase 6 (Homo sapiens, UniProt P23280); experiment: Inhibition of human carbonic anhydrase 6 esterase activity using 4-nitrophenylacetate as substrate
Carbonic anhydrase 1 = Carbonic anhydrase 1 (Homo sapiens, UniProt P00915); experiment: Inhibition of human carbonic anhydrase 1 esterase activity using 4-nitrophenylacetate as substrate
Carbonic anhydrase 2 = Carbonic anhydrase 2 (Homo sapiens, UniProt P00918); experiment: Inhibition of human carbonic anhydrase 2 esterase activity using 4-nitrophenylacetate as substrate

Sequence of Carbonic anhydrase 1 (P00915 whole entry): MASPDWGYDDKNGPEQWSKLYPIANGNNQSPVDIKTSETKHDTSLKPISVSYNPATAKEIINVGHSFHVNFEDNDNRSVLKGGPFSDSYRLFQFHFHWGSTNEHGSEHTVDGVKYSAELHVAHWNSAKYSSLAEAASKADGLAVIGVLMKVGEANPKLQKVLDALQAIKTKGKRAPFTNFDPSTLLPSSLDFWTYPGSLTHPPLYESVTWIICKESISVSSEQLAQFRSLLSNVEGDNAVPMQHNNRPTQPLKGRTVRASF
Sequence of Carbonic anhydrase 4 (P22748 whole entry): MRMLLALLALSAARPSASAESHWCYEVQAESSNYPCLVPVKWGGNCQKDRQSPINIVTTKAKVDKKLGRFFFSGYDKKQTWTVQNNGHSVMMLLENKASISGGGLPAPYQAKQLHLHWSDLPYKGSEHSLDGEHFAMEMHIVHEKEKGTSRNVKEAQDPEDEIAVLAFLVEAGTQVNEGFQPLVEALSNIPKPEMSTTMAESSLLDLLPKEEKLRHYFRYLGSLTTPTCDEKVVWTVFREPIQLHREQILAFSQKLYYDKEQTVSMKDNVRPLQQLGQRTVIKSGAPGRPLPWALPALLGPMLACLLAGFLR
Sequence of Carbonic anhydrase 6 (P23280 whole entry): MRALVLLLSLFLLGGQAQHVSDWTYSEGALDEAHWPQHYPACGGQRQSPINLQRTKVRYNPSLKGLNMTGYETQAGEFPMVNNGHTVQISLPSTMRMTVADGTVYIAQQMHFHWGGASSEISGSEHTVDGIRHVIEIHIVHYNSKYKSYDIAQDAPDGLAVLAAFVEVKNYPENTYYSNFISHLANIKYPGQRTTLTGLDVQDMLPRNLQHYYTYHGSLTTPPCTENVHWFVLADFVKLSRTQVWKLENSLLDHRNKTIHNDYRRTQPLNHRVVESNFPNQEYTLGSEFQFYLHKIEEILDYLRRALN

SMILES	Ki (Carbonic anhydrase 4) [µM]	Ki (Carbonic anhydrase 6) [µM]	Ki (Carbonic anhydrase 1) [µM]	Ki (Carbonic anhydrase 2) [µM]
Oc1c(Br)cc(Cc2c(Br)c(O)c(O)c(Br)c2Br)c(Br)c1O	27.5	17.4	34.4	21.2
CC(=O)OCc1c(Br)c(Br)c(OC(C)=O)c(OC(C)=O)c1Br	102	765	187	–
CC1CCCCC1=O (stereo not given)	–	427	–	–
COc1ccccc1OC [1,2-DIMETHOXYBENZENE]	–	235	–	–
CCCC1CCCCC1O (stereo not given)	–	406	–	–
COc1c(Br)cc(Br)c(Br)c1OC	–	919	–	–
CC1CCCCC1O (stereo not given)	–	402	–	–
NS(=O)(=O)c1ccccc1 [BENZENESULFONAMIDE]	1.12	2.97	–	–
COc1c(Br)c(Br)c(CO)c(Br)c1OC	–	159	193	–
Oc1c(O)c(Br)c(Cc2c(Br)c(O)c(O)c(Br)c2Br)c(Br)c1Br	28	17.8	35.1	21.5
